Test results as given in patent US20100093733A1, “AMIDE AND UREA DERIVATIVES FOR THE TREATMENT OF METABOLIC DISEASES” (PROSIDION LIMITED, priority 2007, published 2010).

Molecular target: T1, human DGAT1 (Homo sapiens, UniProt O75907)
T1 construct: Full length human DGAT10RF (1467 bp); 6xHis (pFastBac HTa vector leader) (N); made in house; host or cells: Sf21 insect cells (baculovirus); microsome fraction
T1 sequence (O75907 1-488): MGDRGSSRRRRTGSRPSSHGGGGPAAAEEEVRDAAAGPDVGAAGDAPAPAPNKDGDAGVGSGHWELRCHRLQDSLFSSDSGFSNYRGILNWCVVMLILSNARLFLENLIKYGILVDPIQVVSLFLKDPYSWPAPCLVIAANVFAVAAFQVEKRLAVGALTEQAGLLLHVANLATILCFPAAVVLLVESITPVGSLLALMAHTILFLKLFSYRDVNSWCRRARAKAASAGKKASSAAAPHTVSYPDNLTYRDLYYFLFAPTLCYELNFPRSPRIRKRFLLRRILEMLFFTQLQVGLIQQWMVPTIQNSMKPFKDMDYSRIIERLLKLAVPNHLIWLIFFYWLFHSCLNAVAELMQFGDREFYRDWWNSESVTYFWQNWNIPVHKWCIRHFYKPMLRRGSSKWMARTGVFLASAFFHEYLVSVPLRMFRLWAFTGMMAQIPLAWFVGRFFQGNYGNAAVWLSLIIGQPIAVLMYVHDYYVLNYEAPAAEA
Test: Evaluation of DGAT1 enzyme inhibition (14C-oleoyl CoA, TLC of triglyceride)
Type: biochemical
Conditions: human DGAT1 microsomes from Sf21 cells, 30° C., 20 min
Method: DGAT assays for compound screening were carried out in 96-well round bottom plates in a total volume of 50 μl containing 25 mM Hepes pH 7.4, 150 mM NaCl, 2 mM MgCl2, 20 mM sodium fluoride, 1 mM dithiothreitol, 0.5 mg/mL BSA, 0.1% Triton X100, 200 uM DAG (1,2-dioleoyl-sn-glycerol) and 15 μM [^14C] oleoyl CoA (specific activity 50-60 mCi/mmol) and a range of inhibitor concentrations in 1% DMSO. Reactions were initiated by the addition of human DGAT1 microsomes (0.4 μg/well) followed by incubation at 30° C. for 20 min. At the end of incubation, reactions were stopped by the addition of 5 μl 0.5N HCl, then 4 μl of each reaction was spotted directly onto a silica gel 60 (20×20 cm) TLC plate pre-scored to give twenty 1 cm wide lanes for lipid separation. […]
Following chromatography, the triglyceride spots were cut out and placed in a scintillation vial for counting. The percentage inhibition values were calculated relative to control and where appropriate IC50 values were derived using the 4 parameter logistic model in XL fit.
The enzyme source used for the assay was prepared from Sf21 cells infected with baculovirus expressing human DGAT1. Full length human DGAT10RF (1467 bp) (Nucleotide Accession: NM 012079; Protein Accession: NP036211) was PCR amplified from human liver cDNA (Marathon Ready) and cloned into pFastBac HTa vector (Life Technologies) containing a 6-Histidine N-terminus. […]

SMILES	IC50
COc1ccc(C)cc1NC(=O)Nc1ccc([C@H]2CC[C@](O)(CC(=O)O)CC2)cc1 [Example 137, Syn-(1-Hydroxy-4-{4-[3-(2-methoxy-5-methylphenyl)-ureido]phenyl}-cyclohexyl)-acetic acid]	1300 nM
COC(=O)[C@H]1CC[C@H](c2ccc(NC(=O)c3cc4ccccc4s3)cn2)CC1 [Example 114, Trans-4-{5-[(Benzo[b]thiophene-2-carbonyl)amino]-pyridin-2-yl}-cyclohexane-carboxylic acid methyl ester]	1800 nM
